According to PMC11571207, “Stereorandomized Oncocins with Preserved Ribosome Binding and Antibacterial Activity” (Journal of Medicinal Chemistry, 2024):
Values after ≈ are worked out from the molar mass of the structure shown. Non-standard residues stand in square brackets, D forms with d. Residues, ends and D or L forms follow the SMILES beside them.

Experiments:
[1] = test system: human red blood cells; test: Hemolysis assay, minimum hemolytic concentration; details: for Haemolysis on hRBC, MHC: 2.5% human red blood cells (final) in 10 mM phosphate, 150 mM NaCl, pH 7.4, 25 °C, 4 h, visual inspection; for MHC human red blood cells: supplement CSV
[2] = test system: A. baumannii ATCC19606; test: microbe, parasite or virus in culture; details: for MIC A. baumannii, 12.5% MHB / MIC A. baumannii, Full MHB: A. baumannii ATCC19606, 16–20 h at 37 °C; for MIC A. baumannii, 12.5% MHB: 12.5% Müller–Hinton medium; for MIC A. baumannii, Full MHB: full Müller–Hinton medium; for MIC A. baumannii ATCC19606: supplement CSV
Text: (§1) We tested antibacterial effects against the Gram-negative bacteria Escherichia coli, Klebsiella pneumoniae, Pseudomonas aeruginosa, and Acinetobacter baumannii and the Gram-positive methicillin-resistant Staphylococcus aureus (MRSA).
(§2) Bacterial growth assay (Figure S1), transmission electron microscopy (Figure S6), serum stability assay (Figure S7), circular dichroism spectral recording (Figures S8 and S9), antimicrobial and hemolysis activity assays (MIC and MHC), and vesicle leakage assay were carried out as described in earlier publications.[43],[44]
(§3) Minimum inhibitory concentration assay
(§4) Antimicrobial activity was assayed against P. aeruginosa PAO1, K. pneumoniae NCTC418, E. coli W3110, A. baumannii ATCC 19606, methicillin-resistant S. aureus COL (MRSA), and for selected peptides on P. aeruginosa PA14 and the polymyxin-B-resistant derivative PA14 2P4, as well as the clinical isolates ZEM-1A and ZEM9A, K. pneumoniae OXA-48, S. aureus Newman, Enterobacter cloacae and Burkholderia cenocepacia. The minimal inhibitory concentration (MIC) was determined by using broth microdilution method. A colo ny of bacteria was picked and grown in Luria-Bertani (LB) medium overnight at 37°C. For E. coli BW25113 sbmA::kan the medium was supplemented with 25 mg/L of kanamycin. The next day, the culture was then regrown in LB medium to log phase (OD600 = 0.6 to 0.8), which lasted approximately 4 h, and diluted to an OD600 of 0.022 in the desired medium. Stock solutions of 1 mg/mL of the samples were prepared in sterilized milliQ water and diluted to the beginning concentration of 64 μg/mL in 300 μL Mueller Hinton (MH)-medium. The diluted samples were added to first well of 96-well microtiter plate (TPP, untreated, Faust Laborbedarf, AG, Schaffhausen) and diluted serially by ½. Finally, 4 μL of the bacterial suspension was inoculated into the sample solutions (150 μL/well) with a final inoculation of about 5∙10^5 CFU/mL. The plates were then incubated at 37°C for 15-18h. For each assay, sterility (broth only) and growth control (broth with bacterial inoculum, without antibiotics) were checked with two columns in the plate. The next day, 15 μL of 3-(4,5-dimethylthiazol-2-yl)-2,5-diphenyltetrazolium bromide (MTT) was added to each well of the plate, such a way that MIC was defined as the lowest concentration of the peptide that inhibited visible growth of the tested

[3] = test system: S. aureus COL (MRSA); test: microbe, parasite or virus in culture; details: for MIC S. aureus, 12.5% MHB / MIC S. aureus, Full MHB: S. aureus COL (MRSA), 16–20 h at 37 °C; for MIC S. aureus, 12.5% MHB: 12.5% Müller–Hinton medium; for MIC S. aureus, Full MHB: full Müller–Hinton medium; for MIC S. aureus COL (MRSA): supplement CSV
Text: as §1, §2, §3, §4

[4] = test system: K. pneumoniae NCTC 418; test: microbe, parasite or virus in culture; details: for MIC K. pneumoniae, 12.5% MHB / MIC K. pneumoniae, Full MHB: K. pneumoniae NCTC 418, 16–20 h at 37 °C; for MIC K. pneumoniae, 12.5% MHB: 12.5% Müller–Hinton medium; for MIC K. pneumoniae, Full MHB: full Müller–Hinton medium; for MIC K. pneumoniae NCTC418: supplement CSV
Text: as §1, §2, §3, §4

[5] = test system: P. aeruginosa PAO1; test: microbe, parasite or virus in culture; details: for MIC P. aeruginosa, 12.5% MHB / MIC P. aeruginosa, Full MHB: P. aeruginosa PAO1, 16–20 h at 37 °C; for MIC P. aeruginosa, 12.5% MHB: 12.5% Müller–Hinton medium; for MIC P. aeruginosa, Full MHB: full Müller–Hinton medium; for MIC P. aeruginosa PAO1: supplement CSV
Text: as §1, §2, §3, §4

[6] = test system: E. coli W3110; test: microbe, parasite or virus in culture; details: for MIC E. coli, 12.5% MHB / MIC E. coli, Full MHB: E. coli W3110, 16–20 h at 37 °C, broth microdilution; for MIC E. coli, 12.5% MHB: 12.5% Müller–Hinton medium; for MIC E. coli, Full MHB: full Müller–Hinton medium; for MIC E. coli W3110: supplement CSV
Text: as §1, §2, §3, §4

Compound	Haemolysis on hRBC, MHC [1]	MHC human red blood cells [1]	MIC A. baumannii, 12.5% MHB [2]	MIC A. baumannii, Full MHB [2]	MIC A. baumannii ATCC19606 ([2]; 12.5% MH pH 7.4)	MIC A. baumannii ATCC19606 ([2]; full MH pH 7.4)	MIC S. aureus, 12.5% MHB [3]	MIC S. aureus, Full MHB [3]	MIC S. aureus COL (MRSA) ([3]; 12.5% MH pH 7.4)	MIC S. aureus COL (MRSA) ([3]; full MH pH 7.4)	MIC K. pneumoniae, 12.5% MHB [4]	MIC K. pneumoniae, Full MHB [4]	MIC K. pneumoniae NCTC418 ([4]; 12.5% MH pH 7.4)	MIC K. pneumoniae NCTC418 ([4]; full MH pH 7.4)	MIC P. aeruginosa, 12.5% MHB [5]	MIC P. aeruginosa, Full MHB [5]	MIC P. aeruginosa PAO1 ([5]; 12.5% MH pH 7.4)	MIC P. aeruginosa PAO1 ([5]; full MH pH 7.4)	MIC E. coli, 12.5% MHB [6]	MIC E. coli, Full MHB [6]	further results
CC[C@H](C)[C@H](NC(=O)[C@H](CCCNC(=N)N)NC(=O)[C@H](CCCNC(=N)N)NC(=O)[C@@H]1CCCN1C(=O)[C@@H]1CCCN1C(=O)[C@H](CCCNC(=N)N)NC(=O)[C@@H]1CCCN1C(=O)[C@H](CCCNC(=N)N)NC(=O)[C@H]1CCCN1C(=O)[C@H](CC(C)C)NC(=O)[C@H](Cc1ccc(O)cc1)NC(=O)[C@@H]1CCCN1C(=O)[C@@H]1CCCN1C(=O)[C@H](CCCCN)NC(=O)[C@H](CC(=O)O)NC(=O)[C@@H](N)C(C)C)C(=O)N[C@@H](Cc1ccc(O)cc1)C(=O)N[C@@H](CC(N)=O)C(=O)N[C@@H](CCCNC(=N)N)C(N)=O [DP8-Onc] (H-VDKPPYL[dP]RPRPPRRIYNR-NH2)	>1000 µg/mL	>1000 µg/mL	16 µg/mL (≈ 6.69 µM)	> 64 µg/mL	16 µg/mL (≈ 6.69 µM)	>64 µg/mL	>64 / 64 μg/mL	>64 / 64 μg/mL	64 µg/mL (≈ 26.8 µM)	>64 µg/mL	16 µg/mL (≈ 6.69 µM)	> 64 µg/mL	16 µg/mL (≈ 6.69 µM)	>64 µg/mL	16 µg/mL (≈ 6.69 µM)	> 64 µg/mL	16 µg/mL (≈ 6.69 µM)	>64 µg/mL	4 µg/mL (≈ 1.67 µM)	32 µg/mL (≈ 13.4 µM)	MIC E. coli W3110 ([6]; 12.5% MH pH 7.4): 4 µg/mL (≈ 1.67 µM); MIC E. coli W3110 ([6]; full MH pH 7.4): 32 µg/mL (≈ 13.4 µM)
CC[C@H](C)[C@H](NC(=O)[C@H](CCCNC(=N)N)NC(=O)[C@H](CCCNC(=N)N)NC(=O)[C@@H]1CCCN1C(=O)[C@@H]1CCCN1C(=O)[C@H](CCCNC(=N)N)NC(=O)[C@H]1CCCN1C(=O)[C@H](CCCNC(=N)N)NC(=O)[C@@H]1CCCN1C(=O)[C@H](CC(C)C)NC(=O)[C@H](Cc1ccc(O)cc1)NC(=O)[C@@H]1CCCN1C(=O)[C@@H]1CCCN1C(=O)[C@H](CCCCN)NC(=O)[C@H](CC(=O)O)NC(=O)[C@@H](N)C(C)C)C(=O)N[C@@H](Cc1ccc(O)cc1)C(=O)N[C@@H](CC(N)=O)C(=O)N[C@@H](CCCNC(=N)N)C(N)=O [DP10-Onc] (H-VDKPPYLPR[dP]RPPRRIYNR-NH2)	>1000 µg/mL	>1000 µg/mL	8 µg/mL (≈ 3.35 µM)	64 µg/mL (≈ 26.8 µM)	8 µg/mL (≈ 3.35 µM)	64 µg/mL (≈ 26.8 µM)	>64 / >64 μg/mL	>64 / >64 μg/mL	>64 µg/mL	>64 µg/mL	4 µg/mL (≈ 1.67 µM)	32 µg/mL (≈ 13.4 µM)	4 µg/mL (≈ 1.67 µM)	32 µg/mL (≈ 13.4 µM)	16 µg/mL (≈ 6.69 µM)	> 64 µg/mL	16 µg/mL (≈ 6.69 µM)	>64 µg/mL	4 µg/mL (≈ 1.67 µM)	16 µg/mL (≈ 6.69 µM)	MIC E. coli W3110 ([6]; 12.5% MH pH 7.4): 4 µg/mL (≈ 1.67 µM); MIC E. coli W3110 ([6]; full MH pH 7.4): 16 µg/mL (≈ 6.69 µM)
